Test systems include BT-549 breast; K-562 leukemia; MALME-3M melanoma; MCF7 breast; NCI-H23 lung; NCI-H460 lung; SF-295 CNS; SK-MEL-5 melanoma; SNB-75 CNS; T-47D breast.
Common to all, as to assay: DTP human tumour cell line panel, 48 h

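Step 1: Grow cells in 96-well plates. Step 2: Expose to compound for 48 hours at 5 concentrations. Step 3: Interpolate endpoints linearly; if unreached, use highest concentration. At the TGI there is no net growth.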

As usually defined, the TGI is the concentration at which net growth stops. High values mean lower sensitivity of the cells, low ones greater sensitivity of the cells. Consider `CCNC(=S)N/N=C(\C)c1cccc(C)n1`, for which the TGI is more than 100 µM in the assay with BT-549 breast; more than 100 µM in the assay with K-562 leukemia; more than 100 µM in the assay with MALME-3M melanoma; more than 100 µM with MCF7 breast; more than 100 µM in the assay with NCI-H23 lung; 26.4 µM in the assay on NCI-H460 lung. Moreover, the TGI with SF-295 CNS was more than 100 µM; with SK-MEL-5 melanoma it was 23.8 µM; with SNB-75 CNS, more than 100 µM; in the assay with T-47D breast, more than 100 µM.

For the compound `Cc1ccc2c(c1C)C(=O)/C(=C/c1cccc(C)c1C(=O)O)C2`, the TGI was more than 100 µM in the assay with BT-549 breast; more than 100 µM with K-562 leukemia; more than 100 µM in the assay on MALME-3M melanoma; more than 65.2 µM in the assay on MCF7 breast; more than 100 µM with NCI-H23 lung; more than 100 µM in the assay with NCI-H460 lung. In addition, the TGI with SF-295 CNS, with SK-MEL-5 melanoma, in the assay on SNB-75 CNS and in the assay with T-47D breast was more than 100 µM in each case.

Regarding `CN(C)CCNC(=O)c1c(O)ccc2c1c1c(n2CCc2ccccc2)C(=O)c2ccccc2C1=O`, the TGI was found to be 32.6 µM in the assay with BT-549 breast; 6.07 µM in the assay with K-562 leukemia; 9.35 µM with MALME-3M melanoma; 12.1 µM in the assay on MCF7 breast; 28.8 µM with NCI-H23 lung; 11.4 µM in the assay with NCI-H460 lung. Moreover, the TGI stood at 15.9 µM in the assay with SF-295 CNS, 7.21 µM with SK-MEL-5 melanoma, 28.1 µM in the assay with SNB-75 CNS and 8.5 µM with T-47D breast.

In the case of `Nc1cc2c3c(cccc3c1)C(=O)N(c1ccc(OCCN3CCCC3)cc1)C2=O`, the concentration for total growth inhibition (TGI) with BT-549 breast is 34.3 µM; in the assay with K-562 leukemia it was 49.2 µM; in the assay with MALME-3M melanoma, 35.9 µM; with MCF7 breast, 31.5 µM; with NCI-H23 lung, 28.2 µM; with NCI-H460 lung it was 23.7 µM. The TGI with SF-295 CNS was 27.4 µM; with SK-MEL-5 melanoma, 36.9 µM; in the assay with SNB-75 CNS, 25.3 µM; in the assay on T-47D breast, 51.6 µM.

Take `COc1cc(/C=N/NC2=NCCN2)ccc1O`: the TGI in the assay on BT-549 breast, in the assay with K-562 leukemia, with MALME-3M melanoma, with MCF7 breast, in the assay with NCI-H23 lung and with NCI-H460 lung was more than 100 µM throughout. Besides, the TGI in the assay with SF-295 CNS, with SK-MEL-5 melanoma, in the assay with SNB-75 CNS and with T-47D breast was more than 100 µM each time.

For the compound `CC(NC(=O)C(Cc1ccc(OC(=O)c2ccccc2)cc1)NC(=O)OC(C)(C)C)C(=O)NCC(=O)NC(Cc1ccccc1)C(=O)NN` (stereo not given), the concentration for total growth inhibition (TGI) with BT-549 breast was more than 100 µM; in the assay with K-562 leukemia it was 76.4 µM; in the assay with MALME-3M melanoma it was more than 100 µM; with MCF7 breast it was more than 100 µM; in the assay on NCI-H23 lung, more than 100 µM; in the assay with NCI-H460 lung, more than 100 µM. In addition, the TGI in the assay on SF-295 CNS, in the assay on SK-MEL-5 melanoma, with SNB-75 CNS and with T-47D breast was more than 100 µM each time.

As to `O=C1C=C(N2CCN(CCOCCO)CC2)C(=O)c2c(O)ccc(O)c21`, the TGI with BT-549 breast was 25.5 µM; with K-562 leukemia, more than 44.6 µM; in the assay with MALME-3M melanoma it was 2.91 µM; in the assay with MCF7 breast, 2.98 µM; in the assay with NCI-H23 lung, 4.67 µM; in the assay on NCI-H460 lung, 21.4 µM. The TGI with SF-295 CNS was 27.8 µM; in the assay with SK-MEL-5 melanoma it was 3.12 µM; in the assay with SNB-75 CNS, 30.6 µM; in the assay with T-47D breast, 18.4 µM.

With `CCOC(=O)/C=C/[C@@H](CC)O[Si](C(C)C)(C(C)C)C(C)C`, the TGI in the assay on BT-549 breast, in the assay with K-562 leukemia, in the assay on MALME-3M melanoma, with MCF7 breast, in the assay with NCI-H23 lung and with NCI-H460 lung was more than 100 µM each time. Besides, the TGI in the assay with SF-295 CNS, with SK-MEL-5 melanoma, with SNB-75 CNS and with T-47D breast was more than 100 µM each time.

`COC(=O)c1ccc(NCC2=C(Br)C(=O)C=CC2=O)cc1Cl`: the TGI in the assay with BT-549 breast is 26.1 µM; in the assay on K-562 leukemia it was more than 100 µM; in the assay with MALME-3M melanoma, 28.4 µM; in the assay with MCF7 breast, 30.9 µM; in the assay on NCI-H23 lung, 45.8 µM; in the assay with NCI-H460 lung, 32.2 µM. Besides, the TGI was more than 100 µM in the assay on SF-295 CNS, 41.1 µM in the assay with SK-MEL-5 melanoma, more than 100 µM with SNB-75 CNS and 38.6 µM in the assay with T-47D breast.

`O=C1N(c2ccccc2)C(=S)/C(=C/c2ccc(Cl)cc2)N1c1ccc(Cl)cc1`: the TGI in the assay with BT-549 breast was more than 100 µM; in the assay on K-562 leukemia, more than 100 µM; with MALME-3M melanoma, 63.9 µM; with MCF7 breast it was more than 100 µM; in the assay with NCI-H23 lung, more than 100 µM; in the assay on NCI-H460 lung it was more than 100 µM. For the same compound, the TGI was more than 100 µM in the assay with SF-295 CNS, more than 100 µM in the assay on SK-MEL-5 melanoma, 56.2 µM in the assay on SNB-75 CNS and more than 100 µM in the assay with T-47D breast.

`O=S(=O)(O)c1cc(S(=O)(=O)O)c2c(N=Nc3ccc(N=Nc4ccccc4)cc3)c(O)ccc2c1`: the TGI with BT-549 breast, in the assay with K-562 leukemia, with MALME-3M melanoma, with MCF7 breast, in the assay with NCI-H23 lung and in the assay with NCI-H460 lung was more than 100 µM in each case. The TGI with SF-295 CNS, in the assay with SK-MEL-5 melanoma, with SNB-75 CNS and in the assay on T-47D breast was more than 100 µM throughout.

For the compound `O=C(NCCCCCN1CCC2(CCCCC2)CC1)C(C1CCCCC1)C1CCCCC1`, the concentration for total growth inhibition (TGI) with BT-549 breast came to 15.4 µM; with K-562 leukemia, 3.5 µM; in the assay on MALME-3M melanoma, 3.26 µM; in the assay on MCF7 breast, 5.37 µM; in the assay on NCI-H23 lung, 9.89 µM; with NCI-H460 lung, 6.46 µM. In addition, the TGI was determined as 3.56 µM with SF-295 CNS, 2.96 µM in the assay with SK-MEL-5 melanoma, 9.48 µM with SNB-75 CNS and 8.43 µM in the assay with T-47D breast.

Turning to `O=P(O)(O)CN1CCNCCN(CP(=O)(O)O)CC1`, the TGI in the assay on BT-549 breast is more than 100 µM; in the assay on K-562 leukemia, more than 76.6 µM; with MALME-3M melanoma, more than 100 µM; with MCF7 breast, more than 100 µM; with NCI-H23 lung, more than 100 µM; with NCI-H460 lung, more than 100 µM. The TGI in the assay on SF-295 CNS is more than 100 µM; in the assay on SK-MEL-5 melanoma, 71.8 µM; in the assay on SNB-75 CNS, more than 100 µM; with T-47D breast, more than 100 µM.

The values are drawn from PubChem BioAssay (NCI).
